Measurements published in ChEMBL document CHEMBL1201862, “PubChem BioAssay data set” (2004).
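96-well plates; 48 h exposure; 5 concentrations. Endpoints by linear interpolation between flanking doses. Not reached: highest tested concentration assigned. GI50 = concentration required for 50% inhibition of growth.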 Activity calls are given as the source filed them. Cut-off read from the data, not from the text of the source: active = GI50 up to about 1.1 µM and inactive = higher.

Columns and labels:
Experiment in all cases: NCI tumour cell line growth inhibition, 48 h
MDA-N = system: MDA-N
OVCAR-3 = system: OVCAR-3
MOLT-4 = system: MOLT-4
HL-60 = system: HL-60
SK-OV-3 = system: SK-OV-3
HCT-15 = system: HCT-15
SN12C = system: SN12C
ACHN = system: ACHN
MDA-MB-231 = system: MDA-MB-231
HOP-92 = system: HOP-92
KM12 = system: KM12
K562 = system: K562
OVCAR-8 = system: OVCAR-8
786-0 = system: 786-0
NCI-H522 = system: NCI-H522
OVCAR-4 = system: OVCAR-4
HOP-62 = system: HOP-62
NCI-H23 = system: NCI-H23
SW-620 = system: SW-620
LXFL 529 = system: LXFL 529

## Nc1c2c(nc3ccccc13)CCCc1ccccc1-2
MDA-N
  GI50: 4.17 µM (inactive)
OVCAR-3
  GI50: 27 µM (inactive)
MOLT-4
  GI50: 16.6 µM (inactive)
HL-60
  GI50: 5.9 µM (inactive)
SK-OV-3
  GI50: 33.5 µM (inactive)
HCT-15
  GI50: 13.8 µM
SN12C
  GI50: 12.8 µM (inactive)
ACHN
  GI50: 10.3 µM (inactive)
MDA-MB-231
  GI50: 5.38 µM (inactive)
HOP-92
  GI50: 10.1 µM (inactive)
KM12
  GI50: 13.1 µM (inactive)
K562
  GI50: 5.7 µM (inactive)
OVCAR-8
  GI50: 14.1 µM (inactive)
786-0
  GI50: 11.3 µM (inactive)
NCI-H522
  GI50: 17.3 µM (inactive)
OVCAR-4
  GI50: 20.1 µM (inactive)
HOP-62
  GI50: 12.4 µM (inactive)
NCI-H23
  GI50: 16.3 µM (inactive)
SW-620
  GI50: 5.94 µM (inactive)

## O=C1C=CC(=O)C(CNc2ccc(C(=O)OCc3ccccc3)cc2)=C1
MDA-N
  GI50: 6.85 µM (inactive)
OVCAR-3
  GI50: 2.4 µM (inactive)
MOLT-4
  GI50: 2 µM (inactive)
HL-60
  GI50: 1.08 µM (active)
SK-OV-3
  GI50: 12.6 µM (inactive)
HCT-15
  GI50: 2.59 µM
SN12C
  GI50: 6.18 µM (inactive)
ACHN
  GI50: 3.66 µM (inactive)
MDA-MB-231
  GI50: 7.82 µM (inactive)
HOP-92
  GI50: 1.76 µM (inactive)
KM12
  GI50: 9.35 µM (inactive)
K562
  GI50: 2.62 µM (inactive)
OVCAR-8
  GI50: 3.98 µM (inactive)
786-0
  GI50: 3.33 µM (inactive)
NCI-H522
  GI50: 1.39 µM (inactive)
OVCAR-4
  GI50: 3.81 µM (inactive)
HOP-62
  GI50: 17.3 µM (inactive)
NCI-H23
  GI50: 10.2 µM (inactive)
SW-620
  GI50: 4.99 µM (inactive)

## CN(C)/C=C/c1c2c(nc3ccccc13)C(=O)c1cccnc1C2=O
MDA-N
  GI50: 0.54 µM (active)
OVCAR-3
  GI50: 0.0568 µM (active)
MOLT-4
  GI50: 2.01 µM (inactive)
HL-60
  GI50: 0.299 µM (active)
SK-OV-3
  GI50: 0.792 µM (active)
HCT-15
  GI50: 0.0908 µM
SN12C
  GI50: 0.532 µM (active)
ACHN
  GI50: 0.217 µM (active)
MDA-MB-231
  GI50: 0.867 µM (active)
HOP-92
  GI50: 2.04 µM (inactive)
KM12
  GI50: 0.35 µM (active)
K562
  GI50: 0.446 µM (active)
OVCAR-8
  GI50: 0.407 µM (active)
786-0
  GI50: 0.226 µM (active)
NCI-H522
  GI50: 0.315 µM (active)
OVCAR-4
  GI50: 0.351 µM (active)
HOP-62
  GI50: 0.0579 µM (active)
NCI-H23
  GI50: 0.592 µM (active)
SW-620
  GI50: 0.244 µM (active)

## CS[C@]12C(=O)C[C@@]3(C)[C@@H](CC[C@]3(O)C(=O)CO)[C@@H]1CCC1=CC(=O)CC[C@@]12C
MDA-N
  GI50: 26.6 µM (inactive)
OVCAR-3
  GI50: > 100 µM (inactive)
MOLT-4
  GI50: 49.8 µM (inactive)
HL-60
  GI50: 35.3 µM (inactive)
SK-OV-3
  GI50: > 100 µM (inactive)
HCT-15
  GI50: 60.7 µM
SN12C
  GI50: > 100 µM (inactive)
ACHN
  GI50: > 100 µM (inactive)
MDA-MB-231
  GI50: > 100 µM (inactive)
HOP-92
  GI50: > 100 µM (inactive)
KM12
  GI50: > 100 µM (inactive)
K562
  GI50: 37.1 µM (inactive)
OVCAR-8
  GI50: > 100 µM (inactive)
786-0
  GI50: > 100 µM (inactive)
NCI-H522
  GI50: 47.9 µM (inactive)
OVCAR-4
  GI50: > 100 µM (inactive)
HOP-62
  GI50: > 100 µM (inactive)
NCI-H23
  GI50: > 100 µM (inactive)
SW-620
  GI50: 68.5 µM (inactive)

## CC1=C(C)C(=O)C(C2=C(C3=CC(=O)C(C)=C(C)C3=O)C(=O)c3ccccc3C2=O)=CC1=O
MDA-N
  GI50: 1.91 µM (inactive)
OVCAR-3
  GI50: 2.68 µM (inactive)
MOLT-4
  GI50: 1.41 µM (inactive)
HL-60
  GI50: 0.255 µM (active)
SK-OV-3
  GI50: 16.5 µM (inactive)
HCT-15
  GI50: 2.12 µM
SN12C
  GI50: 1.85 µM (inactive)
ACHN
  GI50: 2.31 µM (inactive)
MDA-MB-231
  GI50: 2.37 µM (inactive)
HOP-92
  GI50: 2.55 µM (inactive)
KM12
  GI50: 3.33 µM (inactive)
K562
  GI50: 2.77 µM (inactive)
OVCAR-8
  GI50: 2.38 µM (inactive)
786-0
  GI50: 1.88 µM (inactive)
NCI-H522
  GI50: 1.88 µM (inactive)
OVCAR-4
  GI50: 1.7 µM (inactive)
HOP-62
  GI50: 14.7 µM (inactive)
NCI-H23
  GI50: 2.79 µM (inactive)
SW-620
  GI50: 1.82 µM (inactive)

## CC1(c2cccc3c2C2(O)C=CC4(CCC32)OCCO4)OCCO1 (configuration not stated)
OVCAR-3
  GI50: > 100 µM (inactive)
MOLT-4
  GI50: > 100 µM (inactive)
HL-60
  GI50: > 100 µM (inactive)
SK-OV-3
  GI50: > 100 µM (inactive)
HCT-15
  GI50: > 100 µM
SN12C
  GI50: > 100 µM (inactive)
ACHN
  GI50: > 100 µM (inactive)
LXFL 529
  GI50: > 100 µM (inactive)
KM12
  GI50: > 100 µM (inactive)
K562
  GI50: > 100 µM (inactive)
OVCAR-8
  GI50: > 100 µM (inactive)
786-0
  GI50: > 100 µM (inactive)
NCI-H522
  GI50: > 100 µM (inactive)
OVCAR-4
  GI50: > 100 µM (inactive)
HOP-62
  GI50: > 100 µM (inactive)
NCI-H23
  GI50: > 100 µM (inactive)
SW-620
  GI50: > 100 µM (inactive)

## C=CCNC(=S)N/N=C1\C(=O)N(CN2CCOCC2)c2ccc([N+](=O)[O-])cc21
MDA-N
  GI50: 30.8 µM (inactive)
OVCAR-3
  GI50: 24.3 µM (inactive)
MOLT-4
  GI50: 5.98 µM (inactive)
HL-60
  GI50: 24.6 µM (inactive)
SK-OV-3
  GI50: 36.5 µM (inactive)
HCT-15
  GI50: 5.04 µM
SN12C
  GI50: 16.4 µM (inactive)
ACHN
  GI50: 5.3 µM (inactive)
MDA-MB-231
  GI50: 39.8 µM (inactive)
HOP-92
  GI50: 13.3 µM (inactive)
KM12
  GI50: 28.3 µM (inactive)
K562
  GI50: 18.9 µM (inactive)
OVCAR-8
  GI50: 12.7 µM (inactive)
786-0
  GI50: 15.6 µM (inactive)
NCI-H522
  GI50: 41.4 µM (inactive)
OVCAR-4
  GI50: 22.7 µM (inactive)
HOP-62
  GI50: 20.6 µM (inactive)
NCI-H23
  GI50: 44.9 µM (inactive)
SW-620
  GI50: 61.5 µM (inactive)

## CCOC(=O)CC(=O)ON(C)C(C)=O
OVCAR-3
  GI50: > 100 µM (inactive)
MOLT-4
  GI50: > 100 µM (inactive)
HL-60
  GI50: > 100 µM (inactive)
SK-OV-3
  GI50: > 100 µM (inactive)
HCT-15
  GI50: > 100 µM
SN12C
  GI50: > 100 µM (inactive)
ACHN
  GI50: > 100 µM (inactive)
LXFL 529
  GI50: > 100 µM (inactive)
KM12
  GI50: > 100 µM (inactive)
K562
  GI50: > 100 µM (inactive)
OVCAR-8
  GI50: > 100 µM (inactive)
786-0
  GI50: > 100 µM (inactive)
NCI-H522
  GI50: > 100 µM (inactive)
OVCAR-4
  GI50: > 100 µM (inactive)
HOP-62
  GI50: > 100 µM (inactive)
NCI-H23
  GI50: > 100 µM (inactive)
SW-620
  GI50: > 100 µM (inactive)

## CCCCN(CCCC)c1c([N+](=O)[O-])c(=O)nc2ccccn12
OVCAR-3
  GI50: 45.8 µM (inactive)
MOLT-4
  GI50: 37.7 µM (inactive)
SK-OV-3
  GI50: > 100 µM (inactive)
HCT-15
  GI50: 39.4 µM
SN12C
  GI50: 34.1 µM (inactive)
ACHN
  GI50: 35.2 µM (inactive)
LXFL 529
  GI50: 33 µM (inactive)
HOP-92
  GI50: 61.5 µM (inactive)
KM12
  GI50: 31.3 µM (inactive)
K562
  GI50: 37.2 µM (inactive)
OVCAR-8
  GI50: 27.5 µM (inactive)
786-0
  GI50: 34 µM (inactive)
NCI-H522
  GI50: 17.6 µM (inactive)
HOP-62
  GI50: 32.6 µM (inactive)
NCI-H23
  GI50: 30.8 µM (inactive)
SW-620
  GI50: 36.2 µM (inactive)

## Nc1ccn(CC(O)c2cc3ccccc3[nH]2)c(=O)n1 (configuration not stated)
MDA-N
  GI50: > 100 µM (inactive)
OVCAR-3
  GI50: > 100 µM (inactive)
MOLT-4
  GI50: > 100 µM (inactive)
HL-60
  GI50: > 100 µM (inactive)
SK-OV-3
  GI50: > 100 µM (inactive)
HCT-15
  GI50: > 100 µM
SN12C
  GI50: > 100 µM (inactive)
ACHN
  GI50: > 100 µM (inactive)
MDA-MB-231
  GI50: > 100 µM (inactive)
HOP-92
  GI50: > 100 µM (inactive)
KM12
  GI50: > 100 µM (inactive)
K562
  GI50: > 100 µM (inactive)
OVCAR-8
  GI50: > 100 µM (inactive)
786-0
  GI50: > 100 µM (inactive)
NCI-H522
  GI50: > 100 µM (inactive)
OVCAR-4
  GI50: > 100 µM (inactive)
HOP-62
  GI50: > 100 µM (inactive)
NCI-H23
  GI50: > 100 µM (inactive)
SW-620
  GI50: > 100 µM (inactive)

## CCCC1NC(C#N)(C#N)C(CCC)NC1(C#N)C#N (configuration not stated)
MDA-N
  GI50: 0.285 µM (active)
OVCAR-3
  GI50: 0.076 µM (active)
MOLT-4
  GI50: < 0.0214 µM (active)
HL-60
  GI50: < 0.0107 µM (active)
SK-OV-3
  GI50: 35.9 µM (inactive)
HCT-15
  GI50: 0.105 µM
SN12C
  GI50: 1.11 µM (active)
ACHN
  GI50: 0.296 µM (active)
MDA-MB-231
  GI50: 27.8 µM (inactive)
HOP-92
  GI50: 0.488 µM (active)
KM12
  GI50: 9.25 µM (inactive)
K562
  GI50: 0.0589 µM (active)
OVCAR-8
  GI50: 0.149 µM (active)
786-0
  GI50: 0.0326 µM (active)
NCI-H522
  GI50: < 0.0105 µM (active)
OVCAR-4
  GI50: 1.18 µM (inactive)
HOP-62
  GI50: 35.8 µM (inactive)
NCI-H23
  GI50: 2.49 µM (inactive)
SW-620
  GI50: < 0.012 µM (active)
